Columns and labels:
[1] = biological target: T1, Bis(5'-adenosyl)-triphosphatase (Homo sapiens, UniProt P49789); test: Inhibition of recombinant human FHIT incubated for 1hr in presence of tokyogreen-labeled CMP probe by fluorescence based analysis
[2] = Growth inhibition of human NCI-H460-luc cells incubated for 72 hrs by CCK-8 assay; assay type: functional
[3] = Growth inhibition of human HCC827-luc cells incubated for 72 hrs by CCK-8 assay; assay type: functional
[4] = Dissociation constant, pKa of compound; assay type: physicochemical
[5] = biological target: T1, Bis(5'-adenosyl)-triphosphatase; test: Inhibition of recombinant human FHIT assessed as reduction in AP3Aase activity measured after 45 mins by HPLC analysis
[6] = biological target: T1, Bis(5'-adenosyl)-triphosphatase; test: Inhibition of human FHIT expressed in Escherichia coli BL21(DE3)-RIL cells using AP3A as substrate pretreated for 10 mins followed by substrate addition and measured after 1 hr by HPLC analysis

T1 sequence (P49789 whole entry): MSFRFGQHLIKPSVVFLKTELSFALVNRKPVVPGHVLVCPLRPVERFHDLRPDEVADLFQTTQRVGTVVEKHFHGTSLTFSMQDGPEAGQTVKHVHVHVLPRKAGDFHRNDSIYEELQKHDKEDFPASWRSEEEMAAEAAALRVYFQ

Row | SMILES | IC50 [1] [µM] | GI50 [2] [µM] | GI50 [3] [µM] | further results
1 | COCC(=O)N1CC[C@@H]2[C@H]1C(=O)NC[C@H](CCC(=O)OC)N2C | 4.24 |  |  | 
2 | Cc1cc(=O)oc2cc(O)c(F)cc12 |  |  |  | pKa [4]: 6.3
3 | Cc1c(OCC(=O)O)ccc2c3c(c(=O)oc12)CCCC3 | 11 | > 100 | > 100 | 
4 | COc1c(OCC(=O)NO)ccc2c3c(c(=O)oc12)CCCC3 | 2.8 | 29 | 5.3 | 
5 | CCOC(=O)c1c(C)sc(N)c1C(=O)OCC | 1.01 |  |  | 
6 | O=c1cc(C(F)(F)F)c2cc(F)c(O)cc2o1 |  |  |  | pKa [4]: 5.6
7 | Cc1ccccc1-c1c2ccc(=O)cc-2oc2cc(O)ccc12 |  |  |  | pKa [4]: 6.2
8 | Cc1c(OCc2nn[nH]n2)ccc2c3c(c(=O)oc12)CCCC3 | 5 | > 100 | > 100 | 
9 | Cc1ccc(C(=O)Nc2ccc(S(=O)(=O)O)c3cc(S(=O)(=O)O)cc(S(=O)(=O)O)c23)cc1NC(=O)c1cccc(NC(=O)Nc2cccc(C(=O)Nc3cc(C(=O)Nc4ccc(S(=O)(=O)O)c5cc(S(=O)(=O)O)cc(S(=O)(=O)O)c45)ccc3C)c2)c1 [SURAMIN] | 50 |  |  | 
10 | Cc1c(OCc2nn[nH]n2)ccc2c3c(c(=O)oc12)CCC(C)C3 (configuration not stated) | 4.66 |  |  | 
11 | NNC(=O)COc1ccc2c3c(c(=O)oc2c1Br)CCCC3 | 4 | > 100 | > 100 | 
12 | O=C(COc1cc2oc(=O)c3c(c2cc1Br)CCCC3)NO | 18 |  |  | 
13 | O=C(COc1cc2oc(=O)c3c(c2cc1Cl)CCCC3)NO | 50 |  |  | 
14 | CC1(C)CC(=O)C2=C(C1)NC1=C(C(=O)c3ccccc31)C2c1ccc(Br)cc1 (configuration not stated) | 8.8 | > 10 | > 10 | IC50 [6]: 0.049 µM; IC50 [5]: 23 µM

More lines, main results first:

Row | IC50 [1] [µM] | SMILES | GI50 [2] [µM] | GI50 [3] [µM] | further results
15 | 41 | Cc1cc(=O)oc2c(C)c(OCC(=O)NO)ccc12 | 66 | 9.5 | 
16 | 3.43 | O=C(Cn1cc([N+](=O)[O-])ccc1=O)NC(=O)NCc1ccco1 |  |  | 
17 | 1.9 | Cc1c(OCC(=O)NO)ccc2c3c(c(=O)oc12)CCCC3 | 15 | 2.6 | IC50 [5]: 0.14 µM
18 | 8.1 | CC(=O)c1c(OCC(=O)NO)ccc2c3c(c(=O)oc12)CCCC3 |  |  | 
19 | 5.3 | CCc1c(OCC(=O)NO)ccc2c3c(c(=O)oc12)CCCC3 |  |  | 
20 | 3.98 | NNC(=O)c1nn(-c2ccccc2)c(=O)cc1O |  |  | 
21 | 1.58 | O=C(O)c1ccc2[nH]c(-c3ccnc(-c4cccnc4)c3)nc2c1 |  |  | 
22 | 0.77 | CN1C(=O)N/C(=C/c2cccn2-c2ccc(C(=O)O)cc2)C1=O |  |  | 
23 | 5.5 | O=C(COc1ccc2c3c(c(=O)oc2c1)CCCC3)NO | 13 | 0.99 | 
24 | 0.12 | O=C(COc1ccc2c3c(c(=O)oc2c1Br)CCCC3)NO | 5.9 | 0.87 | IC50 [5]: 0.06 µM
25 | 3.73 | O=C(O)c1ccc(/C=N/NC(=O)c2nc(-c3ccccc3)n(-c3ccccc3)n2)cc1 |  |  | 

— ChEMBL document CHEMBL5032508, “Synthesis of Fluorescent Probes Targeting Tumor-Suppressor Protein FHIT and Identification of Apoptosis-Inducing FHIT Inhibitors” (J Med Chem, 2021)
